Experimental data: patent US11207331B2, “Agents, compositions and methods for enhancing neurological function” (University of Southern California, priority 2007, dated 2021)

How the values were obtained:
[1] = system: neural stem cells derived from human fetal cortex; assay: BrdU chemiluminescence ELISA in human neural stem cells; type: cell-based; conditions: 250 and 500 nM, 24 hours
Procedure: Another experiment was performed to assess the neurogenic effects of THP administration on human neural stem cells. In this experiment, neural stem cells derived from human fetal cortex were treated with varying concentrations of THP [1-1000 nM] or with bFGF [20 ng/ml]+heparin [[…]] as a THP positive control. The proliferation marker, BrdU [10 uM] was added simultaneously with test molecules and the cells were incubated at 37° C. for 24 hours.

[2] = system: BrdU positive cells per hippocampus; assay: Survival of BrdU labeled cells in hippocampus after behavioural testing; type: in vivo, mouse
Procedure: Mice of each genotype and age received a subcutaneous (s.c.) injection of THP at a concentration of 10 mg/kg body weight (BW), an optimal dose of THP-[…] based on our previous studies. One hour after THP injection, mice were intraperitoneally (i.p.) injected with 100 mg/kg BW bromodeoxyuridine (BrdU). Two experimental paradigms were used: 1) THP treatment for behavior and cell survival assessment, in which animals received a single shot of THP/vehicle, followed by a 7-day neurogenesis and migration phase, followed by a 5-day trace-conditioning test followed 9 days later by a 1-day memory test, and scarified 21 days after a single THP injection at which time FACS analysis of BrdU positive cells was performed to assess cell survival; 2).
Hippocampus was dissected from the fixed hemispheres from cell survival assessment experiment using consistent anatomical landmarks as criteria for dissection as described in the literature. The rostral ⅓ of the hippocampus lobe was removed to avoid the subventricular zone and rostral migratory stream proliferative pools. The extracted hippocampi were homogenized using Next advance 24 sample homogenizer (Next Advance Inc., NY) for 3 minutes on speed 7. This procedure lyses the plasma lemma while preserves the nuclear envelope intact. The nuclei sample was collected into a regular 1.5 mL microcentrifuge tube by washing the beads and tube 4 times using 200 μL of PBS, and then centrifuged for 10 minutes at 10,000 rpm. Once all of the nuclei were collected in a pellet, the supernatant was discarded. The pellet was then re-suspended in 600 μL of PBS plus 0.5% Triton x-100. The number of nuclear density was estimated by counting the propidium iodide (PI), a fluorescent molecule stoichiometrically binds to DNA by intercalating between the bases with no sequence preference, positive particles. Aliquots of 25 μl were re-suspended in 200 μL of a 0.2 M solution of boric acid, pH 9.0, and heated for 1 h at 75° C. for epitope retrieval. After washed in PBS, the nuclei were incubated for 24 hours at 4° C. with primary mouse monoclonal anti-BrdU antibody (1:100, Abcam, Ab12219) and subsequently with FITC-conjugated goat anti-mouse IgG secondary antibody (1:100 in PBS; Vector Labs, FI-2001). The remainder of cell suspension is diluted to 500 μL and sent for flow cytometry assay using Beckman FC 500 System with CXP Software. Propidium iodide (PI) cells were first gated on a histogram; the expressing cells were visualized on a forward/side scatter plot. PI cells were ‘back-gated’ on the forward/side scatter plot to eliminate debris prior to analysis; this also eliminated auto fluorescence of the sample. Gates were always set using dissociates with cell aliquots which lack of the first antibody, but which were incubated with second antibody and processed alongside the experimental procedure. PI-labeled cells in a fixed volume were gated, and the number of cells showing BrdU signal was analyzed. Data were expressed as total positive cells per hippocampus.
To determine whether cognitive performance was correlated with survival of neuroprogenitor cells, hippocampi from behavioral test animals were analyzed for total number of BrdU positive cells using fluorescence activated cell sorting (FACS). As BrdU was administered one hour post THP injection at the start of the behavioral experiment, FACS analysis detected the total number of surviving BrdU+ cells and thus can be used as a marker of neural progenitor cells that survived and integrated into the hippocampal neuronal network. In 6-months-old vehicle treated non-Tg mice, BrdU+ cell survival was 2003.6±229.5.
We sought to determine whether cell survival was directly attributable to THP exposure or whether cell survival was dependent on the training experience. Thus, the relationship between survival of BrdU positive cells and cognitive performance on the memory phase of the behavioral testing was analyzed. […]

[3] = system: Beta amyloid binding alcohol dehydrogenase (ABAD); assay: ABAD expression (Western blot, antibody ERAB); type: in vivo, mouse
Procedure: Further studies were conducted using a dosing regime of once a week for six months administered subcutaneously. Three and six months old 3×Tg-AD and age-matched non-Tg mice were chosen for the experiments, since AD pathology (Aβ) starts development at 3-month and abundant accumulation at 6-months. Allopregnanolone was subcutaneously (s.c.) administrated with 10 mg/kg once per week for 6 months. For neurogenesis and neurosurvival study, BrdU, IdU and CIdU were intraperitoneal (i.p.) injected at the first 5 days, mid 5 days and 5 days before sacrifice during 6-month treatment. After 6 months of allopregnanolone treatment, mice, at 9- and 12-month old, were sacrificed.
Beta amyloid binding alcohol dehydrogenase (ABAD) was probed with antibody ERAB (1:500, Abcam). […] Immunofluorescent staining using goat polyclonal anti-ERAB (Santa Cruz) confirmed the results obtained by Western Blot analysis. The concentration of ABAD immunoactive cells is less in THP-treated brains than in the brains treated with the vehicle.

In the case of `CC(=O)[C@H]1CC[C@H]2[C@@H]3CC[C@H]4C[C@H](O)CC[C@]4(C)[C@H]3CC[C@]12C` [THP, 3α-hydroxy-5α-pregnan-20-one], the “BrdU chemiluminescence compared with positive control bFGF+heparin” value [1] is reported as “consistently greater than the positive control bFGF+heparin”, the “BrdU chemiluminescence relative to vehicle control” value [1] is reported as “significantly increased” and the “THP-induced proliferation (FACS BrdU) after 23 days of learning and memory” value ([2]; 3×TgAD mice, 3 and 6 month, declined with age thereafter) is reported as “Significant THP-induced proliferation”. The “fold promotion of BrdU+ cell survival” value ([2]; 3×TgAD mice, 6-months-old) was “greater than 2 fold”, the “surviving BrdU+ cells per hippocampus (FACS)” value ([2]; 3×TgAD mice, 6-months-old, 21 days after 10 mg/kg) was 1372.5±326.2 and the “surviving BrdU+ cells per hippocampus (FACS)” value ([2]; 3×TgAD mice, 9-months-old) was 899.3±313.1. The BrdU cells ([2]; 3×TgAD mice, survived BrdU cells) was 1088, the “number of surviving cells generated 20 days prior to sacrifice” value ([2]; 3×TgAD mice, unbiased stereological analysis) was “near doubling in the number of surviving cells” and the “BrdU+ cell survival vs vehicle” value ([2]; 12-months-old non-tg and 3×TgAD mice) was “no significant effect”. The “BrdU positive cells, treatment vs vehicle” value ([2]; Non-Tg mice, 3, 6, 9, 12 month) was “did not show statistical significance between treatment and vehicle groups”, the “BrdU+ cell number 21 days after THP administration” value ([2]; all ages) was “an increase in BrdU+ cell number was observed at all ages” and the “surviving BrdU+ cells per hippocampus (FACS)” value ([2]; non-Tg mice, 6-months-old, 21 days after 10 mg/kg) was 2772.2±534.9. For the same molecule, the “surviving BrdU+ cells per hippocampus (FACS)” value ([2]; non-Tg mice, 9-months-old) was 2255.3±662.4, the “decrease in ABAD level relative to vehicle” value ([3]; 9-month 3×Tg mice) was 30±4% and the “decrease in ABAD level relative to vehicle” value ([3]; 12-month 3×Tg mice) was 20±7%.
